From article PMC5802278, “Molecular and cellular mechanisms of HIF prolyl hydroxylase inhibitors in clinical trials” (Chemical Science, 2017)
Where two headings read alike, the source gives them in different places.

Key:
OGFOD1 = molecular target: T1, OGFOD1 (Homo sapiens, UniProt Q8N543); experiment: MALDI-TOF MS OGFOD1 hydroxylation assay; format: biochemical
T1 construct: made in house
T1 sequence (Q8N543 1-542): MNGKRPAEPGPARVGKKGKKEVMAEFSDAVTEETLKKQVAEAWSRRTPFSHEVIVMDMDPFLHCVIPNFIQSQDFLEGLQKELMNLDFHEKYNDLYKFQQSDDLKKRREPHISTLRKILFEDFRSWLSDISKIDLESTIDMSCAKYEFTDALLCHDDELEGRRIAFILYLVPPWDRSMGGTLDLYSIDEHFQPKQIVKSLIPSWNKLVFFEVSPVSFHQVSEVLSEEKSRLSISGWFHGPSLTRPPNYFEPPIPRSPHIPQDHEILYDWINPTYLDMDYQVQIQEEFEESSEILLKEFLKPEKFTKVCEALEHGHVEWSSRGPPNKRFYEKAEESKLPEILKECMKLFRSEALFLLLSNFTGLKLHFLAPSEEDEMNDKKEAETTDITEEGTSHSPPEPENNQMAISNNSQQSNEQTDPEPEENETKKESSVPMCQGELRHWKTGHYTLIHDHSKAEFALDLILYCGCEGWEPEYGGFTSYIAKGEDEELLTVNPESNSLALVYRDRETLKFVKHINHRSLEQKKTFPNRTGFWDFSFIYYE
Procedure: MALDI-TOF MS OGFOD1 hydroxylation assays
Recombinant human OGFOD1 was prepared as reported,11 and stored at -80 °C in 50 mM HEPES (pH 7.5), 150 mM NaCl, 1 mM DTT and 5% (w/v) glycerol after purification with immobilized metal affinity chromatography. Activity assays were performed by determining the extent of hydroxylation of a 20-residue fragment of human RPS23 containing amino acid […]
residues 51-70 (H2N-[…]-CONH2) by matrix-assisted laser desorption/ionisation time-of-flight mass spectrometry (MALDI-TOF MS) using a Waters® Micromass® MALDI micro MX™ mass spectrometer and MassLynx™ 4.1 as described 12.
The optimised hydroxylation assay involved incubation of OGFOD1 (1 μM) with inhibitor (1 % v/v in DMSO) in the presence of Fe(II) (50 μM), 2OG (25 μM), L-ascorbic acid (100 μM) and RPS2351-70 (25 μM) in HEPES (50 mM, pH 7.5) at 37 °C for 15 min. Reagent solution were made as previously reported. (64) Reactions were quenched with formic acid (1 % v/v).
Samples were prepared by mixing reaction mixture (1 μL) with α-cyano-4-hydrocinnamic acid (CHCA) solution (water:acetonitrile 1:1) (1 μL). Dose-response was assessed in 8-point triplicates. Data were analysed using GraphPad Prism 5.04. […]
Fig. S12. In vitro OGFOD1 selectivity profiling of PHD inhibitors. Inhibition of PHD inhibitors against human OGFOD1 as assayed by MALDI11,13 -TOF MS (the protocol is described in the Supplemental Materials and Methods section). No enzyme and DMSO controls were used for the normalisation of RPS23 peptide hydroxylation. Eight concentrations were used to obtained dose-response curve for each compound. Data points presented in the graph are means with standard deviation, n=3. IC50 values (listed in Table 2) were calculated using GraphPad […]
(1 picture or pasted object on this page, not shown here)

JARID1B (KDM5B) = JARID1B (KDM5B) (Homo sapiens, UniProt Q9UGL1); experiment: AlphaScreen histone demethylase assay; format: biochemical
[1] = test system: hypoxia response element (HRE) firefly luciferase reporter in HT1080 cells; experiment: HRE luciferase reporter assay; format: cell-based; details: for EC50: Homo sapiens
Procedure: HT1080 cells were stably transfected with a construct containing a firefly luciferase gene under the control of 5 tandem copies of the sequence: […] (which contains the hypoxia response element (HRE) 3′ to the mouse erythropoietin gene) linked to a ‘minimal’ SV40 promoter.
HT1080P8 cells (25 000–30 000) were seeded into 96-well plates (100 μL per well) overnight to enable cell adhesion. […] The medium was removed and cells washed with PBS. Luciferase signal was measured using Luciferase Assay System kit from Promega (E1500) following the manufacturer's protocol with a FLUOstar Omega Microplate Reader (BMG Labtech).

[2] = molecular target: PHD2 catalytic domain (residues 181-426) (Homo sapiens, UniProt Q9GZT9); experiment: NMR competition assays (2OG, CODD, NODD displacement); format: binding; parameters: The catalytic domain of human PHD2 (residues 181-426) was used in all; made in house; details: for 2OG displacement: inhibitor at 400 μM, PHD2 at 10 μM, 1H CPMG
Procedure: 2OG displacement experiments were monitored by CPMG-edited 1H NMR using a Bruker […]
supplemented with 60 µM Zn(II) and increasing concentrations of the inhibitors from a […]
(90°x−[τ−180°y−τ−90°y−τ−180°y−τ]n−acq), was applied. Typical experimental parameters were […]
suppression was achieved by presaturation.
For 13C-CODD and […] displacement experiments, 1D Clean In-Phase (CLIP) HSQC with selective 13C-inversion displacement experiments were conducted using a Bruker AV700 instrument. 3 mm MATCH NMR tubes were used (Cortecnet). All experiments were […]
prolyl-ring. 7 The CLIP-HSQC sequence was used for 1D HSQC experiments (without 13C decoupling).8 Relaxation delay was 2s. The 1JCH was set to 160 Hz. A 6.8 ms Q3.1000 180 degree pulse was used and selective irradiation was applied at the selected chemical shift. […]

[3] = HT-1080, 16 h, read-out: EC50 HRE luciferase reporter
[4] = isolated recombinant enzyme, 1 μM, read-out: IC50 OGFOD1
[5] = 1D-selective HSQC with selective 13C inversion

Sequence of PHD2 catalytic domain (residues 181-426) (Q9GZT9 181-426): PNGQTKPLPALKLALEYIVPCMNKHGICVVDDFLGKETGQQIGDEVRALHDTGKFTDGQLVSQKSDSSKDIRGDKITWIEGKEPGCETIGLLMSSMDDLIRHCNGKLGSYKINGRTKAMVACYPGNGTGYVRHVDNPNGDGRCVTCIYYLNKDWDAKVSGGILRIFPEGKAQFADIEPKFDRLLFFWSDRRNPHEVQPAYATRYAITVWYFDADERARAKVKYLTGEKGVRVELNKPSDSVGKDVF
Sequence of JARID1B (KDM5B) (Q9UGL1 whole entry): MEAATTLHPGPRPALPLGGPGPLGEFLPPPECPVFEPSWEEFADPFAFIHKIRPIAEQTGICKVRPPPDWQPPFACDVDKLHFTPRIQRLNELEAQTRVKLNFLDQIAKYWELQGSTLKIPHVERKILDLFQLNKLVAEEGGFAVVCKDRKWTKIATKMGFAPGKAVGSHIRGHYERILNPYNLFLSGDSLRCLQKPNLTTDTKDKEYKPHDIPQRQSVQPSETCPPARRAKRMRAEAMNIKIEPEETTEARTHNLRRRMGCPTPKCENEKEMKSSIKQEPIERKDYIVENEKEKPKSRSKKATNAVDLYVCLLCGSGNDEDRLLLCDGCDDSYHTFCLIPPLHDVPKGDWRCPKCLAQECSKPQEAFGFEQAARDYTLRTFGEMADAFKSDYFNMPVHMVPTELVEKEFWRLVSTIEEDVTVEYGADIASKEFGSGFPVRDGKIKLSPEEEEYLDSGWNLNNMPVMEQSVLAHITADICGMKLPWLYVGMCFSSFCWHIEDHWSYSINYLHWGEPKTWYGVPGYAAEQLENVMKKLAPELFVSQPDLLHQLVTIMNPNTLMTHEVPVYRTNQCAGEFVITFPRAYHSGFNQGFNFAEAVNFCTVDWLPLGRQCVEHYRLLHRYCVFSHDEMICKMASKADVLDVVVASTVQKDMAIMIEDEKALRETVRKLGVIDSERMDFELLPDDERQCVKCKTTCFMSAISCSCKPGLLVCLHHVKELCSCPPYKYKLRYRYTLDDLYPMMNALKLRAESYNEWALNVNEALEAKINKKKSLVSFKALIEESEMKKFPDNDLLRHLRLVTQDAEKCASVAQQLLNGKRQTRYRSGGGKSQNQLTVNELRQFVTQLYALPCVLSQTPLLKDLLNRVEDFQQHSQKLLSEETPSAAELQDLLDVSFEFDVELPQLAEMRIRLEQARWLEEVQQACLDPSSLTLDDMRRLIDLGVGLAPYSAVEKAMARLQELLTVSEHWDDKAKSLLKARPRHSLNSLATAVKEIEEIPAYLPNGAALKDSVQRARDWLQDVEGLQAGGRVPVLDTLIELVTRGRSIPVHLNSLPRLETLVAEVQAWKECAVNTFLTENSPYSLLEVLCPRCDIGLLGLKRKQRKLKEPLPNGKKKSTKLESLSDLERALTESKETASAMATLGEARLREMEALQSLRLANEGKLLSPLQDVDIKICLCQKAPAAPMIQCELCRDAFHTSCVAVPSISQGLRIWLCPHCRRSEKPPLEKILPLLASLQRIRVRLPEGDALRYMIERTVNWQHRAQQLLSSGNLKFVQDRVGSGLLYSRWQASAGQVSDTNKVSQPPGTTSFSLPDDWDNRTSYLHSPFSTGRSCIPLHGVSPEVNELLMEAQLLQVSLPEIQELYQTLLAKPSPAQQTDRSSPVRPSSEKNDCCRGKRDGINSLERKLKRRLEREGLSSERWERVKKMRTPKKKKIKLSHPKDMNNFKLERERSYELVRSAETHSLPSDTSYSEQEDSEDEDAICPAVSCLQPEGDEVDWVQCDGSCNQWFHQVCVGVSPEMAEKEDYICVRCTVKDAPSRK

| Structure (SMILES) | IC50 (OGFOD1) [µM] | IC50 (JARID1B (KDM5B)) [µM] | Emax in HRE luciferase reporter assay ([1]; HT1080 cells, 16 hours) | concentrations at which the luciferase signals were reduced ([1]; HT1080 cells, 16 hours) [µM] | EC50 [1, 3] [µM] | IC50 (OGFOD1; [4]) [µM] | IC50 (JARID1B (KDM5B); read-out: IC50 JARID1B (KDM5B)) [µM] | EC50 ([1]; HT-1080, HT1080 cells, 16 hours treatment, read-out: EC50 HRE luciferase reporter) [µM] | 13C-NODD displacement [2, 5] | 2OG displacement [2] | EC50 ([1]; HT-1080, 6 h, read-out: EC50 HRE luciferase reporter) [µM] | EC50 ([1]; HT-1080, 24 h, read-out: EC50 HRE luciferase reporter) [µM] | EC50 ([1]; HT-1080, 6 h, read-out: EC50 HRE luciferase reporter, HT1080 cells, 6 hours treatment) [µM] | EC50 ([1]; HT-1080, 16 h, read-out: EC50 HRE luciferase reporter, HT1080 cells, 16 hours treatment) [µM] | EC50 ([1]; HT-1080, 24 h, read-out: EC50 HRE luciferase reporter, HT1080 cells, 24 hours treatment) [µM] | 13C-CODD displacement [2, 5] |
| --- | --- | --- | --- | --- | --- | --- | --- | --- | --- | --- | --- | --- | --- | --- | --- | --- |
| O=C(O)CNC(=O)C1C(=O)N(C2CCCCC2)C(=O)N(C2CCCCC2)C1=O [GSK1278863] | 2.1 | > 100 | lowest observed Emax | > 33 | 0.8 |  |  |  |  |  |  |  |  |  |  |  |
| O=c1c(-n2ccnn2)c[nH]n1-c1cc(N2CCOCC2)ncn1 [Molidustat] |  |  |  | > 33 |  | 5.1 | > 100 | 2.1 | barely detectable | completely displaced 2OG |  |  |  |  |  |  |
| CC(C)(C)OC(=O)c1ccc(-n2[nH]cc(-n3ccnn3)c2=O)nc1 [IOX4] |  |  |  | > 33 | 0.8 | < 1 | 87 |  | clearly displaced NODD | completely displaced 2OG |  |  |  |  |  |  |
| O=C(O)CNC(=O)c1ncc(-c2cccc(Cl)c2)cc1O [Vadadustat] |  |  |  |  | 41 | 1.4 | 30 |  | clearly displaced NODD | completely displaced 2OG | 15.7 | 37 |  |  |  |  |
| Cc1nc(C(=O)NCC(=O)O)c(O)c2ccc(Oc3ccccc3)cc12 [FG-4592] |  |  |  |  |  | < 1 | > 100 |  | clearly displaced NODD | completely displaced 2OG |  |  | 3 | 7 | 7 | efficiently displaced CODD |
